Columns and labels:
[1] = target: T1, Aldo-keto reductase family 1 member B1 (Bos taurus, UniProt P16116); assay: In vitro inhibition of partially purified calf lens aldose reductase
Rattus norvegicus = species: Rattus norvegicus; assay: Ability to cause 50% reduction in sorbitol levels of sciatic nerve of streptozotocinized rats was determined; type: functional; settings: Rattus norvegicus, Sciatic nerve; read-out: ED50
[2] = target: T1, Aldo-keto reductase family 1 member B1; assay: In vitro inhibitory activity towards partially purified calf lens aldose reductase; value ranges from 10E-6 - 10E-7
[3] = target: T1, Aldo-keto reductase family 1 member B1; assay: In vitro inhibition of partially purified calf lens aldose reductase; value ranges from 10E-5 to 10E-6
[4] = target: T1, Aldo-keto reductase family 1 member B1; assay: Inhibition of partially purified calf lens aldose reductase; value ranges from 10E-4 to 10e-5 M

SMILES | IC50 [1] [µM] | ED50 (Rattus norvegicus) [mg/kg] | further results
CN1C(=O)N(C)C2(CCCc3ccccc32)C1=O (stereo not drawn) | > 100 | 25 | –
O=C1NC(=O)C2(CCSc3ccc(Br)cc32)N1 (stereo not drawn) | – | 2.5 | IC50 [2]: 1 µM
O=C1NC(=O)C2(CCCCc3ccccc32)N1 (stereo not drawn) | > 100 | > 25 | –
O=C1NC(=O)C(c2ccccc2)(c2ccccc2)N1 [PHENYTOIN] | > 100 | > 250 | –
COc1ccc2c(c1)C1(CCO2)NC(=O)NC1=O (stereo not drawn) | – | > 2.5 | IC50 [3]: 10 µM
O=C1NC(=O)C2(CCc3ccccc32)O1 (stereo not drawn) | – | > 25 | –
O=C(O)C1CCOc2ccccc21 (stereo not drawn) | 100 | – | –
O=C1NC(=O)C2(CCSc3cc(Cl)ccc32)N1 (stereo not drawn) | 1 | > 1.5 | –
O=C(O)C1CCOc2c1cc(Cl)c1ccccc21 (stereo not drawn) | 1 | > 25 | –
COc1cccc2c1CCCC21NC(=O)NC1=O (stereo not drawn) | 10 | > 25 | –
COc1cc2c(cc1OC)C1(CCC2)NC(=O)NC1=O (stereo not drawn) | – | > 5 | IC50 [4]: 100 µM
COc1cc2c(cc1OC)C1(CC2)NC(=O)NC1=O (stereo not drawn) | – | 10 | IC50 [3]: 10 µM
COc1ccc(Cl)cc1C1(C)NC(=O)NC1=O (stereo not drawn) | > 100 | – | –
CC(C)(C)c1ccc2c(c1)C1(CCS2)NC(=O)NC1=O (stereo not drawn) | – | – | IC50 [4]: 100 µM
NC(=O)C1(NC=O)CCc2ccccc21 (stereo not drawn) | 100 | > 10 | –
CN1CCC2(NC(=O)NC2=O)c2ccccc21 (stereo not drawn) | – | > 25 | IC50 [4]: 100 µM
O=C1NC(=O)C2(CCOc3c(Cl)cccc32)N1 (stereo not drawn) | 1 | > 1.5 | –
O=C(O)C1Cc2ccccc2C1 | 100 | – | –
O=C1NC(=O)C2(CCSc3c(Cl)cccc32)N1 (stereo not drawn) | 100 | > 1.5 | –
CN(C)S(=O)(=O)c1ccc2c(c1)C1(CCO2)NC(=O)NC1=O (stereo not drawn) | 100 | > 5 | –
O=C1NCC2(CCc3ccccc32)N1 (stereo not drawn) | > 100 | – | –
O=C1NC(=O)C2(CCCCC2)N1 | 100 | > 25 | –
O=C1NC(=O)C2(CCCc3occc32)N1 (stereo not drawn) | – | 25 | –
Cc1ccc2c(c1)C1(CCO2)NC(=O)NC1=O (stereo not drawn) | – | 5 | IC50 [3]: 10 µM
O=C1NC(=S)NC12CCCc1ccccc12 (stereo not drawn) | > 100 | – | –
O=C1NC(=O)C2(CCOc3ccc(-c4ccccc4)cc32)N1 (stereo not drawn) | < 100 | > 1.5 | –
O=C1NC(=O)C2(CCOc3c(-c4ccccc4)cccc32)N1 (stereo not drawn) | – | 10 | –

SMILES | IC50 [1] [µM] | ED50 (Rattus norvegicus) [mg/kg] | further results
O=C1NC(=O)C2(N1)c1ccccc1CCC2c1ccccc1 (stereo not drawn) | > 100 | > 25 | –
COc1ccc2c(c1)CCC21NC(=O)NC1=O (stereo not drawn) | 10 | > 25 | –
O=C1NC(=O)C2(CCC(C(=O)O)c3ccccc32)N1 (stereo not drawn) | > 100 | – | –
COc1cccc2c3c(ccc12)C1(CCO3)NC(=O)NC1=O (stereo not drawn) | 0.1 | > 1.5 | –
COc1ccc2c(c1)C1(CCS2)NC(=O)NC1=O (stereo not drawn) | 10 | > 5 | –
NC(=O)NC(=O)C1CCc2ccccc21 (stereo not drawn) | 100 | > 10 | –
O=C(O)C1CCc2ccccc21 (stereo not drawn) | > 100 | – | –
O=C(O)C1CCOc2c(Cl)cc(Cl)cc21 (stereo not drawn) | 10 | – | –
Cc1ccc(C)c2c1OCCC21NC(=O)NC1=O (stereo not drawn) | 1 | > 1.5 | –
COc1ccc(Cl)c2c1CCCC21NC(=O)NC1=O (stereo not drawn) | > 100 | > 25 | –
CC1CCC2(NC(=O)NC2=O)c2ccccc21 (stereo not drawn) | 100 | > 25 | –
O=C1NC(=O)C2(CCC(c3ccccc3)c3ccccc32)N1 (stereo not drawn) | – | > 25 | –
COc1cc2c(c(OC)c1OC)C1(CC2)NC(=O)NC1=O (stereo not drawn) | 100 | – | –
O=C1NC(=O)C2(CCOc3c2ccc2cccnc32)N1 (stereo not drawn) | 10 | > 1.5 | –
O=C1NC(=O)C2(CCCc3ncccc32)N1 (stereo not drawn) | 10 | 10 | –
COc1ccc(Cl)c2c1C1(CCO2)NC(=O)NC1=O (stereo not drawn) | > 100 | – | –
O=C1NC(=O)C2(CCS(=O)(=O)c3c(Cl)cc(Cl)cc32)N1 (stereo not drawn) | 0.1 | > 1.5 | –
O=C1NCNC12CCCc1ccccc12 (stereo not drawn) | > 100 | 25 | –
O=C1NC(=O)C2(Cc3ccccc3C2)N1 | > 100 | > 25 | –
NC(=O)c1ccc2c(c1)C1(CCO2)NC(=O)NC1=O (stereo not drawn) | – | > 100 | IC50 [4]: 100 µM
O=C1NC(=O)C2(CCSc3ccc(Cl)cc32)N1 (stereo not drawn) | – | 2.5 | IC50 [2]: 1 µM
O=C1NC(=O)C2(CCn3c(=O)ccc4cc(Cl)cc2c43)N1 (stereo not drawn) | < 0.1 | > 1.5 | –
O=C1NCC2(CCOc3ccc(Cl)cc32)N1 (stereo not drawn) | 10 | > 10 | –
O=C1NC(=O)[C@@]2(CCSc3ccc(F)cc32)N1 | < 0.1 | 0.75 | –
CSc1ccc2c(c1)C1(CCO2)NC(=O)NC1=O (stereo not drawn) | 1 | < 25 | –
O=C1NC(=O)C2(CCCC2c2ccccc2)N1 (stereo not drawn) | > 100 | > 25 | –
O=C1NC(=O)C2(CCOc3ccc(Br)cc32)N1 (stereo not drawn) | – | < 1.5 | IC50 [2]: 1 µM
